Tests used:
[1] = target: T1, recombinant human ACC1 (rhACC1) (Homo sapiens, UniProt Q13085, DEL44-44); assay: recombinant hACC1 Transcreener assay (ADP detection FP); assay type: biochemical; conditions: recombinant hACC1 Transcreener assay, 50 μM ATP, minimum of n=3; read-out: hACC1
T1 construct: infected with recombinant baculovirus containing full length human ACC1 cDNA; made in house; host or cells: SF9 insect cells (baculovirus)
Method: For example direct inhibition of ACC activity, for the compound of Formula (1) was determined using preparations of recombinant human ACC1 (rhACC1) and recombinant human ACC2 (rhACC2).
[1] Preparation of rhACC1. Two liters of SF9 cells, infected with recombinant baculovirus containing full length human ACC1 cDNA, were suspended in ice-cold lysis buffer (25 mM Tris, pH 7.5; 150 mM NaCl; 10% glycerol; 5 mM imidazole (EMD Bioscience; Gibbstown, N.J.); 2 mM TCEP (BioVectra; Charlottetown, Canada); Benzonase nuclease (10000 U/100 g cell paste; Novagen; Madison, Wis.); EDTA-free protease inhibitor cocktail (1 tab/50 mL; Roche Diagnostics; Mannheim, Germany). Cells were lysed by 3 cycles of freeze-thaw and centrifuged at 40,000×g for 40 minutes (4° C.). Supernatant was directly loaded onto a HisTrap FF crude column (GE Healthcare; Piscataway, N.J.) and eluted with an imidazole gradient up to 0.5 M over 20 column volumes (CV). ACC1-containing fractions were pooled and diluted 1:5 with 25 mM Tris, pH 7.5, 2 mM TCEP, 10% glycerol and direct loaded onto a CaptoQ (GE Healthcare) column and eluted with an NaCl gradient up to 1 M over 20 CV's. Phosphate groups were removed from purified ACC1 by incubation with lambda phosphatase (100 U/10 μM target protein; New England Biolabs; Beverly, Mass.) for 14 hours at 4° C.; okadaic acid was added (1 μM final concentration; Roche Diagnostics) to inhibit the phosphatase. Purified ACC1 was exchanged into 25 mM Tris, pH 7.5, 2 mM TCEP, 10% glycerol, 0.5 M NaCl by 6 hour dialysis at 4° C. Aliquots were prepared and frozen at −80° C.
[2] […] The final conditions for the assay were 50 mM HEPES, pH 7.2, 10 mM MgCl2, 7.5 mM tripotassium citrate, 2 mM DTT, 0.1 mg/mL BSA, 30 μM acetyl-CoA, 50 μM ATP, and 10 mM KHCO3. Typically, a 10 μl reaction was run for 120 min at 25° C., and 10 μl of Transcreener stop and detect buffer was added and the combination incubated at room temp for an additional 1 hour.
All of the examples in both assays were run with a minimum of n=3.

[2] = target: T2, recombinant human ACC2 (rhACC2) (Homo sapiens, UniProt O00763, V2141I); assay: recombinant hACC2 Transcreener assay (ADP detection FP); assay type: biochemical; conditions: 50 μM ATP, minimum of n=3
T2 construct: a full length Cytomax clone of ACC2 was purchased from Cambridge Bioscience Limited; made in house; host or cells: CHO cells (tetracycline-inducible, pcDNA5 FRT TO-TOPO)
Method: For example direct inhibition of ACC activity, for the compound of Formula (1) was determined using preparations of recombinant human ACC1 (rhACC1) and recombinant human ACC2 (rhACC2). Representative sequences of the recombinant human ACC1 and ACC2 that can be used in the assay are provided in FIG. 1 (SEQ ID NO. 1) and FIG. 2 (SEQ. ID NO. 2), respectively.
[3] Preparation of rhACC2. Human ACC2 inhibition was measured using purified recombinant human ACC2 (hrACC2). Briefly, a full length Cytomax clone of ACC2 was purchased from Cambridge Bioscience Limited and was sequenced and subcloned into PCDNA5 FRT TO-TOPO (Invitrogen, Carlsbad, Calif.). The ACC2 was expressed in CHO cells by tetracycline induction and harvested in 5 liters of DMEM/F12 with glutamine, biotin, hygromycin and blasticidin with 1 μg/mL tetracycline (Invitrogen, Carlsbad, Calif.). The conditioned medium containing ACC2 was then applied to a Softlink Soft Release Avidin column (Promega, Madison, Wis.) and eluted with 5 mM biotin. 4 mgs of ACC2 were eluted at a concentration of 0.05 mg/mL (determined by A280) with an estimated purity of 95% ([…]). The purified ACC2 was dialyzed in 50 mM Tris, 200 mM NaCl, 4 mM DTT, 2 mM EDTA, and 5% glycerol. The pooled protein was frozen and stored at −80° C., with no loss of activity upon thawing. For measurement of ACC2 activity and assessment of ACC2 inhibition, test compounds were dissolved in DMSO and added to the rhACC2 enzyme as a 5× stock with a final DMSO concentration of 1%.
[4] Measurement of human ACC2 inhibition. hACC2 was assayed in a Costar #3676 (Costar, Cambridge, Mass.) 384-well plate using the Transcreener ADP detection FP assay kit (Bellbrook Labs, Madison, Wis.) using the manufacturer's recommended conditions for a 50 uM ATP reaction. The final conditions for the assay were 50 mM HEPES, pH 7.2, 5 mM MgCl2, 5 mM tripotassium citrate, 2 mM DTT, 0.1 mg/mL BSA, 30 μM acetyl-CoA, 50 μM ATP, and 8 mM KHCO3. Typically, a 10 μl reaction was run for 50 min at 25° C., and 10 μl of Transcreener stop and detect buffer was added and the combination incubated at room temp for an additional 1 hour. The data was acquired on an Envision Fluorescence reader (Perkinelmer) using a 620 excitation Cy5 FP general dual mirror, 620 excitation Cy5 FP filter, 688 emission (S) and a 688 (P) emission filter.
The results using the recombinant hACC1 and recombinant hACC2 Transcreener assays described above are summarized in the table below for the Compounds of Formula (I) exemplified in the Examples above. All of the examples in both assays were run with a minimum of n=3.

T2 sequence (O00763 whole entry V2141I): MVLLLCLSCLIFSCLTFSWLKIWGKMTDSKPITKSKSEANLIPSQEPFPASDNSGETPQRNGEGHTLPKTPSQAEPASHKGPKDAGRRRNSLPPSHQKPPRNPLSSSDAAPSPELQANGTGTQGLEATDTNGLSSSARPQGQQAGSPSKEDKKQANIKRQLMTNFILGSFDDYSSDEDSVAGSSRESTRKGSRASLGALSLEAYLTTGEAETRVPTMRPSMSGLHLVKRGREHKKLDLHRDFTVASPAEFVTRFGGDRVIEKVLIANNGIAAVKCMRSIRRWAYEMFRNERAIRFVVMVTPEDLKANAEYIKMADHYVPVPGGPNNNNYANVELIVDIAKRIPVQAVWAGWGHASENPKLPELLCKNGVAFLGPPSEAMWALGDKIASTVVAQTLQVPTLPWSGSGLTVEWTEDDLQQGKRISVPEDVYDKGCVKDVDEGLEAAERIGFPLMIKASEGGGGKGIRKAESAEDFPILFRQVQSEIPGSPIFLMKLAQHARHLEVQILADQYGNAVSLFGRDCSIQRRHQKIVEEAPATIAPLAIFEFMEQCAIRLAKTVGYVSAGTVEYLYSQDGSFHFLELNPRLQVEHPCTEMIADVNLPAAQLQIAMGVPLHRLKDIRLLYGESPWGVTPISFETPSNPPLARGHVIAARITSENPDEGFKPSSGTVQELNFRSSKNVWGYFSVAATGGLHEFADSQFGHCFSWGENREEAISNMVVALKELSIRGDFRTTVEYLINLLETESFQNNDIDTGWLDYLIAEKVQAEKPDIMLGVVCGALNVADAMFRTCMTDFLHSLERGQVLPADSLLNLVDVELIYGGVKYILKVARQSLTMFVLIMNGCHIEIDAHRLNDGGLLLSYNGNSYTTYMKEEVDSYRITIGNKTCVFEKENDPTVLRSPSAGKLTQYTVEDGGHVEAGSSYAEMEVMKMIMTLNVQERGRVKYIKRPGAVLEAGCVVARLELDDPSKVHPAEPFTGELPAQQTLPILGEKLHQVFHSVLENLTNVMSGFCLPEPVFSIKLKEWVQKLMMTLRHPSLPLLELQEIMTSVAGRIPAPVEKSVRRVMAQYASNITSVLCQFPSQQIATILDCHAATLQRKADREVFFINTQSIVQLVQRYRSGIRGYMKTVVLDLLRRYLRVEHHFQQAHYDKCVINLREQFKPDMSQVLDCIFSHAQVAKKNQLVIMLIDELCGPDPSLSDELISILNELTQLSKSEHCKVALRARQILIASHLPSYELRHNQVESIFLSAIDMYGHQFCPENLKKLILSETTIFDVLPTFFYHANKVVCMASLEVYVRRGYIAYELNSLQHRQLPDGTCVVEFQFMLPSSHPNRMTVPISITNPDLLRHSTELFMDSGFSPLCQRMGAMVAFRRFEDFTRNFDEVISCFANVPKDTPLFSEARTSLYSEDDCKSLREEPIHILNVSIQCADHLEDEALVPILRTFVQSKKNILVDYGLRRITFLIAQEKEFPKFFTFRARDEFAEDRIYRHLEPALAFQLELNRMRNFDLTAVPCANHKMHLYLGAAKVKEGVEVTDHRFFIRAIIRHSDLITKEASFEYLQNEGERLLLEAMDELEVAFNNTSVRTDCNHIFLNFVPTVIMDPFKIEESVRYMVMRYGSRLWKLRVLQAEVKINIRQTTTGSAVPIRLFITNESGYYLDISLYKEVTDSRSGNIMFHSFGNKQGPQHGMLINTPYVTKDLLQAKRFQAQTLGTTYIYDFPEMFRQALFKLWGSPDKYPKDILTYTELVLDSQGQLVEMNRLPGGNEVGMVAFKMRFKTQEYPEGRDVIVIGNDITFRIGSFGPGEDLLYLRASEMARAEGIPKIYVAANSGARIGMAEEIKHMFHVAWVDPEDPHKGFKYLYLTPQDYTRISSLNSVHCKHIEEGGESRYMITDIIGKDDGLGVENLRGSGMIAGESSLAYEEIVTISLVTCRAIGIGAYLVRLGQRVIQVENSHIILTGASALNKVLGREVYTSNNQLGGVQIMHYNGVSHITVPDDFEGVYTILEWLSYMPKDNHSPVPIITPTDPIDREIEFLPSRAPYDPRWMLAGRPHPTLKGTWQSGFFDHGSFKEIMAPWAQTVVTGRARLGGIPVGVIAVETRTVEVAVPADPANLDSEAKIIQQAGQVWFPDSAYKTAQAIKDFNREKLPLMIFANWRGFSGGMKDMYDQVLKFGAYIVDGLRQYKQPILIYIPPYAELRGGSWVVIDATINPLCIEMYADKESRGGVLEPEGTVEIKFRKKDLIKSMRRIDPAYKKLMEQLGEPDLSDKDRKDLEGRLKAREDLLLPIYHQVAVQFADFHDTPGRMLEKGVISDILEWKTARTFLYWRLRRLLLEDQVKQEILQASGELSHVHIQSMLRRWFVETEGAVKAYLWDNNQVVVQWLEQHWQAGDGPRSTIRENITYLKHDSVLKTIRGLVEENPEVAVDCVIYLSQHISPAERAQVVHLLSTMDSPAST

Compound | IC50 [1] [nM] | IC50 [2] [nM]
CC(C)n1ncc2c1C(=O)CC1(CCN(C(=O)c3cc4c(-c5ccc(C(=O)O)cc5)ccnc4[nH]3)CC1)C2 [Example 29, 4-{2-[(1-isopropyl-7-oxo-1,4,6,7-tetrahydro-1′H-spiro[indazole-5,4′-piperidin]-1′-yl)carbonyl]-1H-pyrrolo[2,3-b]pyridin-4-yl}benzoic acid] | 13.7 | 6.16
CC(C)(C)n1ncc2c1C(=O)CC1(CCN(C(=O)c3cc(C(=O)O)cc(-c4ncco4)c3)CC1)C2 [Example 21, 3-[(1-tert-butyl-7-oxo-1,4,6,7-tetrahydro-1′H-spiro[indazole-5,4′-piperidin]-1′-yl)carbonyl]-5-(1,3-oxazol-2-yl)benzoic acid] | 627 | 507
CNc1ncc(-c2ccc(C(=O)O)cc2)cc1C(=O)N1CCC2(CC1)CC(=O)c1c(cnn1C(C)C)C2 [Example 44, 4-{5-[(1-isopropyl-7-oxo-1,4,6,7-tetrahydro-1′H-spiro[indazole-5,4′-piperidin]-1′-yl)carbonyl]-6-(methylamino)pyridin-3-yl}benzoic acid] | 34.4 | 35.9
CC(C)n1ncc2c1C(=O)CC1(CCN(C(=O)c3cc4c(-c5ccc(C(=O)O)cc5)cccc4[nH]3)CC1)C2 [Example 16, 4-{2-[(1-isopropyl-7-oxo-1,4,6,7-tetrahydro-1′H-spiro[indazole-5,4′-piperidin]-1′-yl)carbonyl]-1H-indol-4-yl}benzoic acid] | 9.75 | 11.6
COc1cc(C(=O)N2CCC3(CC2)CC(=O)c2c(cnn2C(C)(C)C)C3)cc(-c2ccc(C(=O)O)cc2)n1 [Example 10, 4-{4-[(1-tert-butyl-7-oxo-1,4,6,7-tetrahydro-1′H-spiro[indazole-5,4′-piperidin]-1′-yl)carbonyl]-6-methoxypyridin-2-yl}benzoic acid] | 30.1 | 35.5
CC(C)n1ncc2c1C(=O)CC1(CCN(C(=O)c3cc(-c4cccc(C(=O)O)c4)[nH]c(=O)c3)CC1)C2 [Example 3, 3-(4-(1-isopropyl-7-oxo-1,4,6,7-tetrahydrospiro[indazole-5,4′-piperidine]-1′-ylcarbonyl)-6-oxo-1,6-dihydropyridin-2-yl)benzoic acid] | 5400 | 2260
CC(C)Nc1nc(-c2cccc(C(=O)O)c2)ccc1C(=O)N1CCC2(CC1)CC(=O)c1c(cnn1C(C)C)C2 [Example 23, 3-{6-(isopropylamino)-5-[(1-isopropyl-7-oxo-1,4,6,7-tetrahydro-1′H-spiro[indazole-5,4′-piperidin]-1′-yl)carbonyl]pyridin-2-yl}benzoic acid] | 1370 | 420
CC(C)n1ncc2c1C(=O)CC1(CCN(C(=O)c3cc4c(-c5cccc(C(=O)O)c5)cncc4[nH]3)CC1)C2 [Example 40, 3-{2-[(1-isopropyl-7-oxo-1,4,6,7-tetrahydro-1′H-spiro[indazole-5,4′-piperidin]-1′-yl)carbonyl]-1H-pyrrolo[2,3-c]pyridin-4-yl}benzoic acid] | 10.2 | 6.1
CC(C)(C)n1ncc2c1C(=O)CC1(CCN(C(=O)c3cc4c(-c5ccc(C(=O)O)cc5)cccc4[nH]3)CC1)C2 [Example 18, 4-{2-[(1-tert-butyl-7-oxo-1,4,6,7-tetrahydro-1′H-spiro[indazole-5,4′-piperidin]-1′-yl)carbonyl]-1H-indol-4-yl}benzoic acid] | 4.5 | 14.6
4-{5-[(1-tert-butyl-7-oxo-1,4,6,7-tetrahydro-1′H-spiro[indazole-5,4′-piperidin]-1′-yl)carbonyl]-6-(methylamino)pyridin-2-yl}benzoic acid [Example 12] | 152 | 94.5
CC(C)n1ncc2c1C(=O)CC1(CCN(C(=O)c3nc4cc(-c5ccc(C(=O)O)cc5)ccc4[nH]3)CC1)C2 [Example 46, 4-{2-[(1-isopropyl-7-oxo-1,4,6,7-tetrahydro-1′H-spiro[indazole-5,4′-piperidin]-1′-yl)carbonyl]-1H-benzimidazol-5-yl}benzoic acid] | 11.6 | 15.7
CC(C)(C)n1ncc2c1C(=O)CC1(CCN(C(=O)c3ccc(-c4cccc(-c5nnn[nH]5)c4)cc3)CC1)C2 [Example 49, 1-tert-butyl-1′-{[3′-(1H-tetrazol-5-yl)biphenyl-4-yl]carbonyl}-1,4-dihydrospiro[indazole-5,4′-piperidin]-7(6H)-one] | 54.7 | 24.7
CC(C)n1ncc2c1C(=O)CC1(CCN(C(=O)c3cc(-c4cccc(C(=O)O)c4)c4cc[nH]c4c3)CC1)C2 [Example 39, 3-{6-[(1-isopropyl-7-oxo-1,4,6,7-tetrahydro-1′H-spiro[indazole-5,4′-piperidin]-1′-yl)carbonyl]-1H-indol-4-yl}benzoic acid] | 29.1 | 29.8
3-{2-[(1-isopropyl-7-oxo-1,4,6,7-tetrahydro-1′H-spiro[indazole-5,4′-piperidin]-1′-yl)carbonyl]-1H-benzimidazol-4-yl}benzoic acid [Example 45] | 4.9 | 10
COc1ccc(-c2cccc3[nH]c(C(=O)N4CCC5(CC4)CC(=O)c4c(cnn4C(C)C)C5)cc23)cc1CC(=O)O [Example 31, (5-{2-[(1-isopropyl-7-oxo-1,4,6,7-tetrahydro-1′H-spiro[indazole-5,4′-piperidin]-1′-yl)carbonyl]-1H-indol-4-yl}-2-methoxyphenyl)acetic acid] | 23.1 | 54.8
CC(C)n1ncc2c1C(=O)CC1(CCN(C(=O)c3nc4cc(-c5cccc(C(=O)O)c5)ccc4[nH]3)CC1)C2 [Example 47, 3-{2-[(1-isopropyl-7-oxo-1,4,6,7-tetrahydro-1′H-spiro[indazole-5,4′-piperidin]-1′-yl)carbonyl]-1H-benzimidazol-5-yl}benzoic acid] | 32.5 | 25.7
CC(C)n1ncc2c1C(=O)CC1(CCN(C(=O)c3ccc(-c4ccc(C(=O)O)cc4)nc3NCC(F)(F)F)CC1)C2 [Example 42, 4-{5-[(1-isopropyl-7-oxo-1,4,6,7-tetrahydro-1′H-spiro[indazole-5,4′-piperidin]-1′-yl)carbonyl]-6-[(2,2,2-trifluoroethyl)amino]pyridin-2-yl}benzoic acid] | 39.9 | 30.4
